Tests used:
[1] = Inhibition of c-AMP kinase PKA; set-up: species or system Bos taurus
[2] = molecular target: Protein kinase C, PKC; classical/novel (Homo sapiens) (UniProt O94806+P17252+P05129+Q05655+P05771+Q02156+P24723+Q15139+Q04759); test: Displacement of phorbol [3H]PDBu from protein kinase C; A - Did displace phorbol (PDBu) at 50 uM or less; assay type: protein assay
Protein kinase C (PKC) = test: Inhibitory activity against protein kinase C (PKC); assay type: protein assay, Homo sapiens
[3] = Inhibitory activity against c-AMP kinase; Did not inhibit c-AMP kinase

SMILES	IC50 [1]	Phorbol displacement [2]	IC50 (Protein kinase C (PKC))	IC50 [3]
O=C1OCC2OC(=O)c3cc(O)c(O)c(O)c3-c3c(O)c(O)c(O)c4c3C(=O)OC(C2OC(=O)c2cc(O)c(O)c(O)c2-c2c1cc(O)c(O)c2O)C1OC(=O)c2c-4c(O)c(O)c(O)c2[C@@H]1c1c(O)cc(O)c2c1O[C@H](c1ccc(O)c(O)c1)[C@@H](O)C2 (stereo not given in full)	95 µM	< 50 µM	7 µM	–
O=C(O[C@@H]1O[C@@H]2COC(=O)c3cc(Oc4c(C(=O)O)cc(O)c(O)c4O)c(O)c(O)c3-c3c(cc(O)c(O)c3O)C(=O)O[C@H]([C@H]1O)[C@@H]2O)c1cc(O)c(O)c(O)c1	100 µM	< 50 µM	20 µM	–
O=C(OC1COC(=O)c2cc(O)c(O)c(O)c2-c2c(cc(O)c(O)c2O)C(=O)OC1C1OC(=O)c2cc(O)c(O)c(O)c2-c2c(O)c(O)c(O)c3c2C(=O)OC1[C@@H]3O)c1cc(O)c(O)c(O)c1 (stereo not given in full)	84 µM	< 50 µM	11 µM	–
CC1(C)CC[C@]2(C(=O)O)CC[C@]3(C)C(=CCC4[C@@]5(C)C[C@@H](O)[C@@H]6OC(=O)c7cc(O)c(O)c(O)c7-c7c(cc(O)c(O)c7O)C(=O)OC[C@@]6(CO)C5CC[C@]43C)C2C1 (stereo not given in full)	–	< 50 µM	23 µM	Not Active
O=C(OC1Cc2c(O)cc(O)cc2O[C@@H]1c1ccc(O)c(O)c1)c1cc(O)c(O)c(O)c1 (stereo not given in full)	–	< 50 µM	48 µM	Not Active

Continued by falling IC50 [1], values first:

IC50 [1]	Phorbol displacement [2]	IC50 (Protein kinase C (PKC))	IC50 [3]	SMILES
65 µM	< 50 µM	16 µM	–	O=C1O[C@H]2[C@@H]3OC(=O)c4cc(O)c(O)c(O)c4-c4c(cc(Oc5c(C(=O)O)cc(O)c(O)c5O)c(O)c4O)C(=O)OC[C@H]2O[C@@H](OC(=O)c2cc(O)c(O)c(O)c2)[C@@H]3OC(=O)c2cc(O)c(O)c3c2C2C1=CC(=O)C(O)(O)C2(O)O3 (stereo not given in full) [E181]
48 µM	< 50 µM	5 µM	–	O=C(O[C@@H]1O[C@H]2COC(=O)c3cc(O)c(O)c(O)c3-c3c(cc(O)c(O)c3O)C(=O)O[C@H]2[C@@H]2OC(=O)c3cc(O)c(O)c(O)c3-c3c(cc(O)c(O)c3O)C(=O)O[C@H]12)c1cc(O)c(O)c(Oc2c(O)c(O)c(O)c3c2C(=O)O[C@H]2[C@@H]4OC(=O)c5cc(O)c(O)c(O)c5-c5c(cc(O)c(O)c5O)C(=O)O[C@@H]4[C@H](OC(=O)c4cc(O)c(O)c(O)c4)O[C@H]2COC(=O)c2cc(O)c(O)c(O)c2-3)c1
44 µM	< 50 µM	4 µM	–	O=C1OCC2OC(=O)c3cc(O)c(O)c(O)c3-c3c(O)c(O)c(O)c4c3C(=O)OC(C2OC(=O)c2cc(O)c(O)c(O)c2-c2c1cc(O)c(O)c2O)C1OC(=O)C2C4=C(O)C(=O)C23Oc2cc(O)c4c(c2[C@H]13)O[C@H](c1ccc(O)c(O)c1)[C@@H](O)C4 (stereo not given in full)
32 µM	< 50 µM	3 µM	–	O=C(OC[C@@H]1O[C@@H](OC(=O)c2cc(O)c(O)c(O)c2)[C@@H](OC(=O)c2cc(O)c(O)c(O)c2)[C@@H](OC(=O)c2cc(O)c(O)c(O)c2)[C@@H]1OC(=O)c1cc(O)c(O)c(O)c1Oc1cc2c(c(O)c1O)-c1c(cc(O)c(O)c1O)C(=O)OC[C@@H]1O[C@@H](OC(=O)c3cc(O)c(O)c(O)c3)[C@@H](OC(=O)c3cc(O)c(O)c(O)c3)[C@@H](OC(=O)c3cc(O)c(O)c(O)c3)[C@@H]1OC2=O)c1cc(O)c(O)c(O)c1
22 µM	< 50 µM	10 µM	–	O=C(O[C@@H]1O[C@H]2COC(=O)c3cc(O)c(O)c(O)c3-c3c(cc(O)c(O)c3O)C(=O)O[C@H]2[C@@H]2OC(=O)c3cc(O)c(O)c(O)c3-c3c(cc(O)c(O)c3O)C(=O)O[C@H]12)c1cc(O)c(O)c(Oc2c(O)c(O)c(O)c3c2C(=O)O[C@H]2[C@@H]4OC(=O)c5cc(O)c(O)c(O)c5-c5c(cc(O)c(O)c5O)C(=O)O[C@@H]4[C@H](OC(=O)c4cc(O)c(O)c(Oc5c(O)c(O)c(O)c6c5C(=O)O[C@H]5[C@@H]7OC(=O)c8cc(O)c(O)c(O)c8-c8c(cc(O)c(O)c8O)C(=O)O[C@@H]7[C@H](OC(=O)c7cc(O)c(O)c(Oc8c(O)c(O)c(O)c9c8C(=O)O[C@H]8[C@@H]%10OC(=O)c%11cc(O)c(O)c(O)c%11-c%11c(cc(O)c(O)c%11O)C(=O)O[C@@H]%10[C@H](OC(=O)c%10cc(O)c(O)c(O)c%10)O[C@H]8COC(=O)c8cc(O)c(O)c(O)c8-9)c7)O[C@H]5COC(=O)c5cc(O)c(O)c(O)c5-6)c4)O[C@H]2COC(=O)c2cc(O)c(O)c(O)c2-3)c1

Source: ChEMBL document CHEMBL1149998, “Tannins as selective inhibitors of protein kinase C” (Bioorg Med Chem Lett, 1992)
